The subject of assay [1] is methicillin resistant S. aureus Mu50 strain (S. aureus ATCC700699) biofilm. Put plainly: Biofilm susceptibility to vancomycin, pre-treatment regimen (biofilm formed in presence of compound, then vancomycin). The assay is classed as cell-based. To be noted: for Pretreat (100 μM): percentage Colony Forming Units (CFU's) per biofilm: compound 100 μM during biofilm formation; for Pretreat (100 μM): percentage Colony Forming Units (CFU's) per biofilm / Pretreat. (25 μM): percentage Colony Forming Units (CFU's) per biofilm: then VAN 20 μg/ml, compared to the untreated (negative) control; for EC50: concentration needed to get 50% killing compared to antibiotic alone (VAN 20 μg/ml) and complete killing, read-out: Pretreat. (EC50); for Pretreat. (25 μM): percentage Colony Forming Units (CFU's) per biofilm: compound 25 μM during biofilm formation. The essentials:
(§1)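 Mu50 biofilms from 10^8 CFU/ml inoculum (4 h adhesion, then 20 h, 37 °C). Pre-treatment: compound (0.1-250 μM) present during biofilm formation, then vancomycin 20 μg/ml alone 24 h; combination: mature biofilm given vancomycin 20 μg/ml plus compound 24 h. Survivors counted by plating versus vancomycin alone.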

The test system is the same in assay [2]. Kind of assay: Biofilm susceptibility to vancomycin, combination treatment regimen (mature biofilm treated with compound plus vancomycin). Format: cell-based. To be noted: for Combin. (100 μM): percentage Colony Forming Units (CFU's) per biofilm: compound 100 μM together with VAN 20 μg/ml on mature biofilm; for Combin. (100 μM): percentage Colony Forming Units (CFU's) per biofilm / Combin. (25 μM): percentage Colony Forming Units (CFU's) per biofilm: compared to the untreated (negative) control; for EC50: concentration needed to get 50% killing compared to antibiotic alone (VAN 20 μg/ml) and complete killing, read-out: Combin. (EC50); for Combin. (25 μM): percentage Colony Forming Units (CFU's) per biofilm: compound 25 μM together with VAN 20 μg/ml on mature biofilm. The essentials:
as §1

The structures appear in SMILES notation.

For orientation: EC50 means the midpoint of the concentration-response curve.

As for `O=C(NC[C@H]1OC[C@@](O)(CNC(=O)c2ccccc2Cl)[C@@H]1O)c1ccc(-c2ccccc2)cc1` [compound 250, N-(((2R,3R,4S)-4-((2-chlorobenzamido)methyl)-3,4-dihydroxytetrahydrofuran-2-yl)methyl)-[1,1′-biphenyl]-4-carboxamide], in assay [1], the “Pretreat (100 μM): percentage Colony Forming Units (CFU's) per biofilm” value is given as 18.82 percentage and the EC50 amounted to 23 µM. For the same molecule, in assay [2], the “Combin. (100 μM): percentage Colony Forming Units (CFU's) per biofilm” value is given as 29.48 percentage and the EC50 was determined as 61.3 µM.
With `O=C(NC[C@]1(O)CO[C@H](Cn2cc(-c3ccccc3)nn2)[C@H]1O)c1ccccc1` [compound 221, N-(((3S,4R,5R)-3,4-dihydroxy-5-((4-phenyl-1H-1,2,3-triazol-1-yl)methyl)tetrahydrofuran-3-yl)methyl)benzamide], in assay [1], the “Pretreat (100 μM): percentage Colony Forming Units (CFU's) per biofilm” value is listed as 54.01 percentage. Also, in assay [2], the “Combin. (100 μM): percentage Colony Forming Units (CFU's) per biofilm” value was determined as 33.81 percentage.
As for `O=C(NC[C@H]1OC[C@@](O)(CNC(=O)c2ccnnc2)[C@@H]1O)c1ccc(-c2ccccc2)cc1` [compound 256, N-(((3S,4R,5R)-5-([1,1′-biphenyl]-4-carboxamidomethyl)-3,4-dihydroxytetrahydrofuran-3-yl)methyl)pyridazine-4-carboxamide], in assay [1], the “Pretreat (100 μM): percentage Colony Forming Units (CFU's) per biofilm” value amounted to 14.25 percentage and the EC50 was found to be 15.5 µM. For the same molecule, in assay [2], the “Combin. (100 μM): percentage Colony Forming Units (CFU's) per biofilm” value is 29.97 percentage and the EC50 came out at 53.4 µM.
As for `CN(C)c1cccc(C(=O)NC[C@H]2OC[C@@](O)(CNC(=O)c3ccccc3)[C@@H]2O)c1` [compound 165, N-(((2R,3R,4S)-4-(benzamidomethyl)-3,4-dihydroxytetrahydrofuran-2-yl)methyl)-3-(dimethylamino)benzamide], the “Pretreat (100 μM): percentage Colony Forming Units (CFU's) per biofilm” value in assay [1] was 16.00 percentage. In addition, the “Combin. (100 μM): percentage Colony Forming Units (CFU's) per biofilm” value in assay [2] amounted to 26.43 percentage.
As for `O=C(NC[C@H]1OC[C@@](O)(CNC(=O)c2ccccc2)[C@@H]1O)c1cccc(C(F)(F)F)c1` [compound 166, N-(((2R,3R,4S)-4-(benzamidomethyl)-3,4-dihydroxytetrahydrofuran-2-yl)methyl)-3-(trifluoromethyl)benzamide], in assay [1], the “Pretreat (100 μM): percentage Colony Forming Units (CFU's) per biofilm” value was 10.16 percentage and the EC50 was found to be 9.13 µM. For the same molecule, in assay [2], the “Combin. (100 μM): percentage Colony Forming Units (CFU's) per biofilm” value worked out at 12.34 percentage and the EC50 amounted to 12.3 µM.
For the molecule `O=C(NC[C@H]1OC[C@@](O)(CNC(=O)c2ccccc2)[C@@H]1O)c1ccc(F)cc1` [compound 152, N-(((2R,3R,4S)-4-(benzamidomethyl)-3,4-dihydroxytetrahydrofuran-2-yl)methyl)-4-fluorobenzamide], in assay [1], the “Pretreat (100 μM): percentage Colony Forming Units (CFU's) per biofilm” value was 15.07 percentage. Besides, the “Combin. (100 μM): percentage Colony Forming Units (CFU's) per biofilm” value in assay [2] came out at 14.05 percentage.
The matching figures for `O=C(NC[C@]1(O)CO[C@H](CN2C(=O)c3ccc(Cl)cc3C2=O)[C@H]1O)c1ccccc1` [compound 227, N-(((3S,4R,5R)-5-((5-chloro-1,3-dioxoisoindolin-2-yl)methyl)-3,4-dihydroxytetrahydrofuran-3-yl)methyl)benzamide]: 77.57 percentage and 61.81 percentage.
For `O=C(NC[C@]1(O)CO[C@H](CNC(=O)c2ccccc2Cl)[C@H]1O)c1ccc(F)cc1` [compound 233, 2-chloro-N-(((2R,3R,4S)-4-((4-fluorobenzamido)methyl)-3,4-dihydroxytetrahydrofuran-2-yl)methyl)benzamide], the “Pretreat. (25 μM): percentage Colony Forming Units (CFU's) per biofilm” value in assay [1] came out at 88.61 percentage. Further, the “Combin. (25 μM): percentage Colony Forming Units (CFU's) per biofilm” value in assay [2] turned out to be 91.63 percentage.
Turning to `O=C(NC[C@H]1OC[C@@](O)(CNC(=O)c2ccccc2)[C@@H]1O)c1ccnnc1` [compound 207, N-(((2R,3R,4S)-4-(benzamidomethyl)-3,4-dihydroxytetrahydrofuran-2-yl)methyl)pyridazine-4-carboxamide], in assay [1], the “Pretreat (100 μM): percentage Colony Forming Units (CFU's) per biofilm” value worked out at 6.950 percentage and the concentration giving a half-maximal response (EC50) turned out to be 7.28 µM. In addition, in assay [2], the “Combin. (100 μM): percentage Colony Forming Units (CFU's) per biofilm” value is 13.70 percentage and the EC50 amounted to 8.54 µM.
`O=C(NC[C@]1(O)CO[C@H](CNC(=O)c2ccccc2C(F)(F)F)[C@H]1O)c1ccccc1` [compound 175, N-(((2R,3R,4S)-4-(benzamidomethyl)-3,4-dihydroxytetrahydrofuran-2-yl)methyl)-2-(trifluoromethyl)benzamide]: the “Pretreat (100 μM): percentage Colony Forming Units (CFU's) per biofilm” value in assay [1] was 22.48 percentage. The “Combin. (100 μM): percentage Colony Forming Units (CFU's) per biofilm” value in assay [2] is reported as 34.85 percentage.
The matching figures for `O=C(NC[C@]1(O)CO[C@H](CNC(=O)c2ccncn2)[C@H]1O)c1ccccc1` [compound 204, N-(((2R,3R,4S)-4-(benzamidomethyl)-3,4-dihydroxytetrahydrofuran-2-yl)methyl)pyrimidine-4-carboxamide]: 13.04 percentage and 15.85 percentage.
Turning to `O=C(NC[C@H]1OC[C@@](O)(CNC(=O)c2ccc(-c3ccccc3)cc2)[C@@H]1O)c1ccnnc1` [compound 253, N-(((2R,3R,4S)-4-([1,1′-biphenyl]-4-carboxamidomethyl)-3,4-dihydroxytetrahydrofuran-2-yl)methyl)pyridazine-4-carboxamide], in assay [1], the “Pretreat (100 μM): percentage Colony Forming Units (CFU's) per biofilm” value was determined as 4.25 percentage and the EC50 came out at 8.54 µM. Moreover, in assay [2], the “Combin. (100 μM): percentage Colony Forming Units (CFU's) per biofilm” value is on record as 22.50 percentage and the EC50 is 45.4 µM.
As to `O=C(NC[C@]1(O)CO[C@H](CNC(=O)c2cnccn2)[C@H]1O)c1ccccc1` [compound 208, N-(((2R,3R,4S)-4-(benzamidomethyl)-3,4-dihydroxytetrahydrofuran-2-yl)methyl)pyrazine-2-carboxamide], the “Pretreat (100 μM): percentage Colony Forming Units (CFU's) per biofilm” value in assay [1] was 10.52 percentage. Further, the “Combin. (100 μM): percentage Colony Forming Units (CFU's) per biofilm” value in assay [2] was 18.77 percentage.
Turning to `O=C(NC[C@]1(O)CO[C@H](CN2Cc3ccccc3C2=O)[C@H]1O)c1ccccc1` [compound 230, N-(((3S,4R,5R)-3,4-dihydroxy-5-((1-oxoisoindolin-2-yl)methyl)tetrahydrofuran-3-yl)methyl)benzamide], in assay [1], the “Pretreat (100 μM): percentage Colony Forming Units (CFU's) per biofilm” value came to 24.90 percentage and the EC50 was found to be 57.7 µM. For the same molecule, in assay [2], the “Combin. (100 μM): percentage Colony Forming Units (CFU's) per biofilm” value is recorded as 30.15 percentage and the EC50 was found to be 60.2 µM.
`Cn1cncc1C(=O)NC[C@H]1OC[C@@](O)(CNC(=O)c2ccccc2)[C@@H]1O` [compound 210, N-(((2R,3R,4S)-4-(benzamidomethyl)-3,4-dihydroxytetrahydrofuran-2-yl)methyl)-1-methyl-1H-imidazole-5-carboxamide]: in assay [1], the “Pretreat (100 μM): percentage Colony Forming Units (CFU's) per biofilm” value was 22.10 percentage and the EC50 was found to be 52.3 µM. In assay [2], the “Combin. (100 μM): percentage Colony Forming Units (CFU's) per biofilm” value stood at 26.95 percentage and the EC50 was found to be 58.2 µM.
For the molecule `O=C(NC[C@]1(O)CO[C@H](CNC(=O)c2ccccc2Br)[C@H]1O)c1ccccc1` [compound 178, N-(((2R,3R,4S)-4-(benzamidomethyl)-3,4-dihydroxytetrahydrofuran-2-yl)methyl)-2-bromobenzamide], in assay [1], the “Pretreat (100 μM): percentage Colony Forming Units (CFU's) per biofilm” value came to 4.10 percentage and the EC50 came to 9.85 µM. Moreover, in assay [2], the “Combin. (100 μM): percentage Colony Forming Units (CFU's) per biofilm” value is recorded as 17.51 percentage and the EC50 turned out to be 19.7 µM.
The like results for `Cn1nccc1C(=O)NC[C@H]1OC[C@@](O)(CNC(=O)c2ccccc2)[C@@H]1O` [compound 209, N-(((2R,3R,4S)-4-(benzamidomethyl)-3,4-dihydroxytetrahydrofuran-2-yl)methyl)-1-methyl-1H-pyrazole-5-carboxamide] were, in that order, 22.47 percentage, 29.3 µM, 21.74 percentage and 23.5 µM.
For `O=C(NC[C@]1(O)CO[C@H](CNC(=O)c2ncccn2)[C@H]1O)c1ccccc1` [compound 203, N-(((2R,3R,4S)-4-(benzamidomethyl)-3,4-dihydroxytetrahydrofuran-2-yl)methyl)pyrimidine-2-carboxamide], in assay [1], the “Pretreat (100 μM): percentage Colony Forming Units (CFU's) per biofilm” value is reported as 41.20 percentage. Also, the “Combin. (100 μM): percentage Colony Forming Units (CFU's) per biofilm” value in assay [2] worked out at 31.95 percentage.
Turning to `O=C(NC[C@]1(O)CO[C@H](CNC(=O)c2ccccc2Cl)[C@H]1O)c1cccc(C(F)(F)F)c1` [compound 242, 2-chloro-N-(((2R,3R,4S)-3,4-dihydroxy-4-((3-(trifluoromethyl)benzamido)methyl)tetrahydrofuran-2-yl)methyl)benzamide], the “Pretreat. (25 μM): percentage Colony Forming Units (CFU's) per biofilm” value in assay [1] was found to be 117.15 percentage. The “Combin. (25 μM): percentage Colony Forming Units (CFU's) per biofilm” value in assay [2] amounted to 87.14 percentage.
